# Legend:
# [1] = Pharmacokinetic food-effect study, single 20 mg/kg dose, healthy subjects (Example 17); details: 7-OH-cannabidiol; for ln(AUC0-inf) Geometric Mean / ln(AUC0-t) Geometric Mean / ln(Cmax) Geometric Mean: least squares geometric mean; for AUC0 / AUC0-0.25 / AUC0-0.5 / AUC0-0.75 / AUC0-1 / AUC0-1.5 / AUC0-2 / AUC0-2.5 / AUC0-3 / AUC0-4 / AUC0-6 / AUC0-8 / AUC0-12 / AUC0-16 / AUC0-24 / AUC0-36 / AUC0-48 / AUC0-72 / AUC0-96 / AUC0-120: single 20 mg/kg cannabidiol oral, mean ± SD; for AUC(0-inf) / AUC(0-t) / AUCextrap / Clast / Cmax / Tlast / t1/2 / λz / Tmax: single 20 mg/kg oral dose of cannabidiol solution; for AUC(0-inf) / AUC(0-t) / AUCextrap / Clast / Cmax / Tlast / t1/2 / λz: mean; for Tmax: median (min, max)
# Description: An open label, randomized, single-dose, two-period, two-way crossover food-effect study was conducted on healthy subjects. […] Twenty-four (24) subjects were enrolled in the study and each were subjected to the fasted and fed treatment arms in separate periods followed by a 7-day wash-out period. For pharmacokinetic analysis, nominal time and default lambda-z selections were used. All below quantifiable limit values were set to zero and all subjects were included in the analysis.
# Data from 13 subjects from the fasted treatment and 24 subject from the fed treatment were included in the pharmacokinetic and statistical analyses.
# [2] = test system: paclitaxel-induced mechanical sensitivity; assay: Paclitaxel induced neuropathic pain study (Von Frey mechanical sensitivity); type: in vivo, mice
# [3] = 20 mg/kg cannabidiol oral, Fasted
# [4] = 20 mg/kg cannabidiol oral, geometric mean (fed)/geometric mean (fasted)
compound,measurement,setting,value
C=C(C)[C@@H]1CCC(CO)=C[C@H]1c1c(O)cc(CCCCC)cc1O [Formulation 7-OH-cannabidiol],ln(AUC0-inf) Geometric Mean,[1]; [3],657.5873
same,ln(AUC0-t) Geometric Mean,[1]; [3],630.3322
same,ln(Cmax) Geometric Mean,[1]; [3],34.8933
same,ln(AUC0-inf) Geometric Mean,"[1]; 20 mg/kg cannabidiol oral, Fed",4701.4345
same,ln(AUC0-t) Geometric Mean,"[1]; 20 mg/kg cannabidiol oral, Fed",4610.3024
same,ln(Cmax) Geometric Mean,"[1]; 20 mg/kg cannabidiol oral, Fed",442.6751
same,ln(AUC0-inf) Ratio (%) (Fed/Fasted),[1]; [4],714.95%
same,ln(AUC0-t) Ratio (%) (Fed/Fasted),[1]; [4],731.41%
same,ln(Cmax) Ratio (%) (Fed/Fasted),[1]; [4],1268.65%
same,AUC0,[1]; fasted,0.114 ± 0.410 ng·h/mL
same,AUC0-0.25,[1]; fasted,0.101 ± 0.363 ng·h/mL
same,AUC0-0.5,[1]; fasted,0.217 ± 0.361 ng·h/mL
same,AUC0-0.75,[1]; fasted,0.954 ± 0.843 ng·h/mL
same,AUC0-1,[1]; fasted,2.29 ± 2.13 ng·h/mL
same,AUC0-1.5,[1]; fasted,3.91 ± 3.90 ng·h/mL
same,AUC0-2,[1]; fasted,5.46 ± 5.23 ng·h/mL
same,AUC0-2.5,[1]; fasted,6.81 ± 6.85 ng·h/mL
same,AUC0-3,[1]; fasted,7.83 ± 8.27 ng·h/mL
same,AUC0-4,[1]; fasted,8.65 ± 8.64 ng·h/mL
same,AUC0-6,[1]; fasted,9.79 ± 7.71 ng·h/mL
same,AUC0-8,[1]; fasted,18.5 ± 34.2 ng·h/mL
same,AUC0-12,[1]; fasted,10.1 ± 8.36 ng·h/mL
same,AUC0-16,[1]; fasted,7.23 ± 4.28 ng·h/mL
same,AUC0-24,[1]; fasted,6.09 ± 2.70 ng·h/mL
same,AUC0-36,[1]; fasted,4.39 ± 2.45 ng·h/mL
same,AUC0-48,[1]; fasted,3.00 ± 1.91 ng·h/mL
same,AUC0-72,[1]; fasted,1.65 ± 1.38 ng·h/mL
same,AUC0-96,[1]; fasted,1.04 ± 1.11 ng·h/mL
same,AUC0-120,[1]; fasted,0.511 ± 0.799 ng·h/mL
same,AUC0,[1]; fed,0.131 ± 0.537 ng·h/mL
same,AUC0-0.25,[1]; fed,0.221 ± 0.676 ng·h/mL
same,AUC0-0.5,[1]; fed,0.980 ± 1.29 ng·h/mL
same,AUC0-0.75,[1]; fed,2.87 ± 4.21 ng·h/mL
same,AUC0-1,[1]; fed,7.33 ± 11.7 ng·h/mL
same,AUC0-1.5,[1]; fed,47.5 ± 78.5 ng·h/mL
same,AUC0-2,[1]; fed,104 ± 150 ng·h/mL
same,AUC0-2.5,[1]; fed,158 ± 202 ng·h/mL
same,AUC0-3,[1]; fed,197 ± 235 ng·h/mL
same,AUC0-4,[1]; fed,289 ± 290 ng·h/mL
same,AUC0-6,[1]; fed,346 ± 188 ng·h/mL
same,AUC0-8,[1]; fed,284 ± 128 ng·h/mL
same,AUC0-12,[1]; fed,187 ± 121 ng·h/mL
same,AUC0-16,[1]; fed,85.7 ± 36.9 ng·h/mL
same,AUC0-24,[1]; fed,47.5 ± 23.0 ng·h/mL
same,AUC0-36,[1]; fed,26.7 ± 13.1 ng·h/mL
same,AUC0-48,[1]; fed,16.9 ± 7.73 ng·h/mL
same,AUC0-72,[1]; fed,7.36 ± 3.10 ng·h/mL
same,AUC0-96,[1]; fed,4.03 ± 1.94 ng·h/mL
same,AUC0-120,[1]; fed,2.41 ± 1.26 ng·h/mL
same,AUC(0-inf),[1]; fasted,425.3 ng·h/mL
same,AUC(0-t),[1]; fasted,414.7 ng·h/mL
same,AUCextrap,[1]; fasted,2.77%
same,Clast,[1]; fasted,0.561 ng/mL
same,Cmax,[1]; fasted,22.8 ng/mL
same,Tlast,[1]; fasted,114.47 h
same,t1/2,[1]; fasted,21.36 h
same,λz,[1]; fasted,0.0348 h⁻¹
same,Tmax,[1]; fasted,"8.00 (2.50, 24.00) h"
same,AUC(0-inf),[1]; fed,4902 ng·h/mL
same,AUC(0-t),[1]; fed,4811 ng·h/mL
same,AUCextrap,[1]; fed,1.93%
same,Clast,[1]; fed,2.41 ng/mL
same,Cmax,[1]; fed,474 ng/mL
same,Tlast,[1]; fed,120.00 h
same,t1/2,[1]; fed,24.69 h
same,λz,[1]; fed,0.0292 h⁻¹
same,Tmax,[1]; fed,"6.00 (3.00, 12.00) h"
"CCCCCc1cc(O)c2c(c1)OC(C)(C)[C@@H]1CCC(C)=C[C@@H]21 [THC, reference compound]",minimal effective dose,[2]; IP,2.5 mg/kg
same,dose equi-effective to […] CBD,[2]; dose equivalence analysis,0.7 mg/kg
same,effect on paclitaxel-induced mechanical sensitivity (in words),"[2]; pretreatment 15 minutes prior to each paclitaxel injection, IP",significantly attenuated

# From patent US11911361B2, “Stable cannabinoid formulations” (priority 2014, dated 2024)
